Experimental data published in patent publication US20230295162A1 (EÖTVÖS LORÁND TUDOMÁNYEGYETEM, priority 2020, published 2023).

Columns and labels:
[1] = tested on: EBC-1 lung cancer cell line; assay: High-throughput screening, CellTiter-Glo cell viability assay at 100 nM; type: cell-based, human; conditions: Homo sapiens, EBC-1, HTS, compounds at 100 nM, 72 h, read-out: cytotoxicity expressed in IC50, EBC-1 (results of High throughput screening)
Method: (§1) EBC-1 (obtained from JRCB, https://cellbank.nibiohn.go.jp/english/) and H2228 (obtained from ATCC https://www.lgcstandards-atcc.org/) cell lines were maintained according to the instructions provided by JRCB and ATCC in a 5% CO2 humidified incubator maintained at 37° C. temperature. Effect of compounds on cell viability was measured via CellTiter-Glo® luminescent cell viability assay (Promega, Madison, WI, USA). Cells were plated at 1000 cells/well onto a flat-bottomed, white 96 well plate (BRANDplates, cat. no.: 781965). After 24 h, cells were treated for 72 h with the compounds at 100 nM concentration. After the treatment, medium was removed and CellTiter-Glo® reagent was added. Untreated cells were used as control. The luminescence signal was recorded using a microplate reader (BioTek Synergy 2 Multi-Mode Reader, BioTek, Winooski, VT, USA). Cell viability data (% of untreated control cells) was evaluated with Microsoft Excel.

[2] = tested on: H2228 lung cancer cell line; assay: as above; type: cell-based, human; conditions: Homo sapiens, NCI-H2228, HTS, compounds at 100 nM, 72 h, read-out: cytotoxicity expressed in IC50, H2228 (results of High throughput screening)
Method: as §1

[3] = tested on: PANC-1 (human pancreatic carcinoma) cells; assay: Impedance-based viability assay (xCELLigence SP), long treatment; type: cell-based; conditions: 72 h, read-out: cytotoxicity expressed in IC50, PANC-1
Source text: (Gibco®/Invitrogen Corporation, New York, NY, USA).
Data obtained from each experiment represent mathematical averages.

Compound	IC50 [1]	IC50 [2]	IC50 [3]
Nc1ccc(CN2CCC3=C(C2)C(=O)N(Cc2ccc(C(F)(F)F)c(F)c2)C2=NCCN23)cc1 [I/82]	> 100 nM	> 100 nM	
COc1cc(CN2C(=O)C3=C(CCN(Cc4ccccc4)C3)N3CCN=C23)cc(OC)c1OC [I/51]	> 100 nM	> 100 nM	
O=C1C2=C(CCN(Cc3ccccc3)C2)N2CCN=C2N1Cc1cccc(I)c1 [I/56]	> 100 nM	> 100 nM	
[N-]=[N+]=Nc1ccc(CN2CCC3=C(C2)C(=O)N(Cc2ccc(F)cc2)C2=NCCN23)cc1 [I/109]			8900 nM
Nc1ccc(CN2C(=O)C3=C(CCN(Cc4cc(F)cc(F)c4)C3)N3CCN=C23)cc1 [I/88]	> 100 nM	> 100 nM	
COCCOc1cc2ncnc(Nc3cccc(-c4cn(-c5ccc(CN6CCC7=C(C6)C(=O)N(Cc6ccccc6C)C6=NCCN67)cc5)nn4)c3)c2cc1OCCOC [I/122]	> 100 nM	> 100 nM	
Nc1ccc(CN2CCC3=C(C2)C(=O)N(Cc2cccc(F)c2)C2=NCCN23)cc1 [I/83]	> 100 nM	> 100 nM	
Nc1cccc(CN2CCC3=C(C2)C(=O)N(Cc2ccc(C(F)(F)F)c(F)c2)C2=NCCN23)c1 [I/80]	> 100 nM	> 100 nM	
O=C1C2=C(CCN(Cc3ccc(F)c(F)c3F)C2)N2CCN=C2N1Cc1ccc(F)cc1 [I/34]	> 100 nM	> 100 nM	
[N-]=[N+]=Nc1ccc(CN2CCC3=C(C2)C(=O)N(CC2CNC2)C2=NCCN23)cc1 [I/118]	> 100 nM	> 100 nM	
Cc1ccccc1CN1C(=O)C2=C(CCN(Cc3cccc(N)c3)C2)N2CCN=C12 [I/77]	> 100 nM	> 100 nM	
Cc1ccccc1CN1C(=O)C2=C(CCN(Cc3cccc(C(F)(F)F)c3)C2)N2CCN=C12 [I/13]	> 100 nM	> 100 nM	
O=C1C2=C(CCN(Cc3cc(C(F)(F)F)cc(C(F)(F)F)c3)C2)N2CCN=C2N1Cc1ccc(C(F)(F)F)c(F)c1 [I/22]	> 100 nM	> 100 nM	
O=C1C2=C(CCN(Cc3cccc(C(F)(F)F)c3)C2)N2CCN=C2N1Cc1ccc(F)cc1 [I/32]	> 100 nM	> 100 nM	
O=C1C2=C(CCN(Cc3ccc(F)c(F)c3)C2)N2CCN=C2N1Cc1ccc(I)cc1 [I/17]	> 100 nM	> 100 nM	
Cc1ccccc1CN1C(=O)C2=C(CCN(CC3CCCN3)C2)N2CCN=C12 (stereo not shown) [I/99]	> 100 nM	> 100 nM	
O=C1C2=C(CCN(Cc3ccccc3)C2)N2CCN=C2N1Cc1ccc(Br)cc1 [I/41]	> 100 nM	< 100 nM	
O=C1C2=C(CCN(Cc3cc(F)c(F)c(F)c3)C2)N2CCN=C2N1Cc1ccc(I)cc1 [I/19]	> 100 nM	> 100 nM	
Cc1ccccc1CN1C(=O)C2=C(CCN(CC3CCNCC3)C2)N2CCN=C12 [I/94]	> 100 nM	> 100 nM	
O=C1C2=C(CCN(Cc3cccc(C(F)(F)F)c3)C2)N2CCN=C2N1Cc1ccc(C(F)(F)F)c(F)c1 [I/33]	> 100 nM	> 100 nM	
Cc1ccccc1CN1C(=O)C2=C(CCN(CC3CNC3)C2)N2CCN=C12 [I/92]	> 100 nM	> 100 nM	

Compound	IC50 [1]	IC50 [2]	IC50 [3]
Nc1cccc(CN2CCC3=C(C2)C(=O)N(Cc2ccc(C(F)(F)F)cc2)C2=NCCN23)c1 [I/79]	> 100 nM	> 100 nM	
[N-]=[N+]=Nc1ccc(CN2CCC3=C(C2)C(=O)N(Cc2ccc(C(F)(F)F)cc2)C2=NCCN23)cc1 [I/110]	> 100 nM	> 100 nM	
O=C1C2=C(CCN(Cc3ccc(F)c(F)c3F)C2)N2CCN=C2N1Cc1ccc(I)cc1 [I/18]	> 100 nM	> 100 nM	
Cc1ccccc1CN1C(=O)C2=C(CCN(Cc3ccc(N)cc3)C2)N2CCN=C12 [I/74]	> 100 nM	> 100 nM	
COc1cc(CN2C(=O)C3=C(CCN(Cc4ccc(N=[N+]=[N-])cc4)C3)N3CCN=C23)cc(OC)c1OC [I/116]	> 100 nM	> 100 nM	
[N-]=[N+]=Nc1cccc(CN2C(=O)C3=C(CCN(Cc4ccccc4)C3)N3CCN=C23)c1 [I/102]	> 100 nM	> 100 nM	
Cc1ccccc1CN1C(=O)C2=C(CCN(Cc3ccc(F)c(F)c3)C2)N2CCN=C12 [I/14]	> 100 nM	> 100 nM	
Cc1ccccc1CN1C(=O)C2=C(CCN(Cc3cc(C(F)(F)F)cc(C(F)(F)F)c3)C2)N2CCN=C12 [I/15]	> 100 nM	> 100 nM	
NCc1ccc(CN2C(=O)C3=C(CCN(Cc4ccccc4)C3)N3CCN=C23)cc1 [I/62]	> 100 nM	> 100 nM	
O=C1C2=C(CCN(Cc3ccccc3)C2)N2CCN=C2N1CC1CCNCC1 [I/96]	> 100 nM	> 100 nM	
O=C1C2=C(CCN(Cc3cccc(F)c3)C2)N2CCN=C2N1Cc1ccc(Br)cc1 [I/4, reference compound]	< 100 nM	< 100 nM	
O=C1C2=C(CCN(Cc3cc(F)cc(F)c3)C2)N2CCN=C2N1Cc1ccc(I)cc1 [I/38]	< 100 nM	< 100 nM	
[N-]=[N+]=Nc1ccc(CN2C(=O)C3=C(CCN(Cc4cccc(F)c4)C3)N3CCN=C23)cc1 [I/106]	~100 nM	> 100 nM	
[N-]=[N+]=Nc1cccc(CN2C(=O)C3=C(CCN(Cc4cccc(F)c4)C3)N3CCN=C23)c1 [I/105]	< 100 nM	~100 nM	
O=C1C2=C(CCN(Cc3cc(F)cc(F)c3)C2)N2CCN=C2N1Cc1ccc([N+](=O)[O-])cc1F [I/50]	< 100 nM	< 100 nM	
O=C1C2=C(CCN(CC3CCCN3)C2)N2CCN=C2N1Cc1ccc(F)cc1 (stereo not shown) [I/100]	> 100 nM	> 100 nM	
Nc1ccc(CN2CCC3=C(C2)C(=O)N(CC2CCNCC2)C2=NCCN23)cc1 [I/93]	> 100 nM	> 100 nM	
O=C1C2=C(CCN(Cc3cccc(F)c3)C2)N2CCN=C2N1Cc1ccc([N+](=O)[O-])cc1F [I/49]	< 100 nM	< 100 nM	
Nc1ccc(CN2CCC3=C(C2)C(=O)N(CC2CNC2)C2=NCCN23)cc1 [I/91]	> 100 nM	> 100 nM	
O=C1C2=C(CCN(Cc3ccccc3)C2)N2CCN=C2N1CC1CNC1 [I/90]	> 100 nM	> 100 nM	
Cc1ccccc1CN1C(=O)C2=C(CCN(CC3CCNC3)C2)N2CCN=C12 (stereo not shown) [I/97]	> 100 nM	> 100 nM	

Compound	IC50 [1]	IC50 [2]	IC50 [3]
Cc1ccccc1CN1C(=O)C2=C(CCN(Cc3ccc(F)cc3C(F)(F)F)C2)N2CCN=C12 [I/12]	> 100 nM	> 100 nM	
O=C1C2=C(CCN(Cc3ccc(F)c(F)c3)C2)N2CCN=C2N1Cc1ccc(F)cc1 [I/23]	> 100 nM	> 100 nM	
Nc1cccc(CN2C(=O)C3=C(CCN(Cc4cccc(F)c4)C3)N3CCN=C23)c1 [I/76]	> 100 nM	> 100 nM	
O=C1C2=C(CCN(CC3CCNC3)C2)N2CCN=C2N1Cc1ccc(F)cc1 (stereo not shown) [I/98]	> 100 nM	> 100 nM	
COc1cc(CN2C(=O)C3=C(CCN(Cc4cccc(F)c4)C3)N3CCN=C23)cc(OC)c1OC [I/57]	> 100 nM	> 100 nM	
Nc1cccc(CN2CCC3=C(C2)C(=O)N(Cc2ccc(I)cc2)C2=NCCN23)c1 [I/78]	> 100 nM	> 100 nM	
O=C1C2=C(CCN(CC3CCNCC3)C2)N2CCN=C2N1Cc1ccc(F)cc1 [I/95]	> 100 nM	> 100 nM	
[N-]=[N+]=Nc1ccc(CN2CCC3=C(C2)C(=O)N(Cc2ccc(C(F)(F)F)c(F)c2)C2=NCCN23)cc1 [I/114]	> 100 nM	> 100 nM	
O=C1C2=C(CCN(Cc3cc(C(F)(F)F)cc(C(F)(F)F)c3)C2)N2CCN=C2N1Cc1ccc(I)cc1 [I/16]	> 100 nM	> 100 nM	
COCCOc1cc2ncnc(Nc3cccc(-c4cn(-c5ccc(CN6C(=O)C7=C(CCN(Cc8ccccc8)C7)N7CCN=C67)cc5)nn4)c3)c2cc1OCCOC [I/123]	> 100 nM	> 100 nM	
[N-]=[N+]=Nc1ccc(CN2CCC3=C(C2)C(=O)N(Cc2cccc(F)c2)C2=NCCN23)cc1 [I/108]	> 100 nM	> 100 nM	
[N-]=[N+]=Nc1ccc(CN2CCC3=C(C2)C(=O)N(CC2CCNCC2)C2=NCCN23)cc1 [I/119]	> 100 nM	> 100 nM	
Nc1ccc(CN2CCC3=C(C2)C(=O)N(Cc2ccc(N)cc2)C2=NCCN23)cc1 [I/85]	> 100 nM	> 100 nM	
NCc1cccc(CN2CCC3=C(C2)C(=O)N(Cc2ccc(C(F)(F)F)cc2)C2=NCCN23)c1 [I/69]	> 100 nM	> 100 nM	
[N-]=[N+]=Nc1ccc(CN2CCC3=C(C2)C(=O)N(Cc2ccc(N=[N+]=[N-])cc2)C2=NCCN23)cc1 [I/117]	> 100 nM	> 100 nM	
O=C1C2=C(CCN(Cc3cc(C(F)(F)F)cc(C(F)(F)F)c3)C2)N2CCN=C2N1Cc1ccc(C(F)(F)F)cc1 [I/21]	> 100 nM	> 100 nM	
O=C1C2=C(CCN(Cc3cccc(C(F)(F)F)c3)C2)N2CCN=C2N1Cc1ccc(I)cc1 [I/15A]	> 100 nM	> 100 nM	
O=C1C2=C(CCN(Cc3cc(C(F)(F)F)cc(C(F)(F)F)c3)C2)N2CCN=C2N1Cc1ccc(F)cc1 [I/24]	> 100 nM	> 100 nM	
O=C1C2=C(CCN(Cc3cc(F)c(F)c(F)c3)C2)N2CCN=C2N1Cc1ccc(F)cc1 [I/25]	> 100 nM	> 100 nM	
